{"source": "patent US20230255906A1", "about": "“Targeting Serpin B9 in Cancer” (The Brigham and Women`s Hospital, Inc., priority 2020, published 2023)", "key": {"MBP-Sb9": {"target": "T1, MBP-Sb9 (Homo sapiens, UniProt P50453)", "T1 construct": "made in house", "T1 sequence (P50453 whole entry)": "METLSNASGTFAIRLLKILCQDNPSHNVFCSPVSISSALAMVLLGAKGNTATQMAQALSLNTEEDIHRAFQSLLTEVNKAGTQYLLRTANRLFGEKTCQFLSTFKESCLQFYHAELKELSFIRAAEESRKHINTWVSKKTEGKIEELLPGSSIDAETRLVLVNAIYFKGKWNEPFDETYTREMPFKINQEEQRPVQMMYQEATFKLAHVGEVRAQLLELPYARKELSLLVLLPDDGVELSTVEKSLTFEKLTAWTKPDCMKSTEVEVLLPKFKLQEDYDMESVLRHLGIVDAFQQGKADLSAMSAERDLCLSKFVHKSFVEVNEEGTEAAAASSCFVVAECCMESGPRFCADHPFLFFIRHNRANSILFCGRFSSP", "test": "Surface plasmon resonance (SPR) binding", "details": "25° C., 1:1 Langmuir model", "procedure": "Surface plasmon resonance (SPR) measures change in refractive index on a biosensor surface, as analytic mass accumulates via binding to an attached ligand. This allows derivation of affinity (KD) from measured kinetic rates of association (ka) and dissociation (kd). All assays were run at 25° C. on a BiOptix 404pi. An NTA biosensor chip was used in this study to pre-concentrate 3 μM MBP-Sb9 via an N-terminal His-tag. MBP-Sb9 was covalently immobilized with EDC/NHS in 20 mM HEPES pH 8.0, 150 mM NaCl, 0.05% Tween-20, 5 mM β-ME to 10,000 to 15,000 RUs. MBP was similarly immobilized on a separate channel as a negative control. Compounds were injected as 3-fold serial dilutions in duplicate starting at 200 μM. Injections were done at 50 μL/min for 60 seconds, followed by a 120 second dissociation in 20 mM HEPES, pH 8.0, 150 mM NaCl, 0.05% Tween-20, 5 mM j-ME, 1% DMSO. A series of five DMSO standards between 0.5% and 1.5% were included with each run to correct for bulk refractive index. Sensorgrams were analyzed using Scrubber 2 software with a double reference and fit to a 1:1 Langmuir model to determine the interaction parameters KD, ka, and kd."}, "A375 human melanoma": {"system": "A375 human melanoma", "test": "A375 human melanoma tumors in NSG mice", "format": "in vivo, mouse", "details": "300 μg i.p. bid for 14 days", "procedure": "FIGS. 10D-10E. […] Data are expressed as means±SEM. *P<0.05 (Student's t-test). Mean survival time (MST) is increased in mice treated with the compound of Formula (III) as compared to Control group (FIG. 10E).\nMice were anesthetized with isoflurane, and tumor cell lines (B16, A375, and 4T1) were gently injected subcutaneously in the flanks or mammary glands of mice. One hundred thousand cells (1×10^5 cells) were injected per mouse for most of the experiments. However, twenty-five thousand cells (25×10^3 cells) were injected per mouse for the experiments using the compound of Formula (III). Upon 4 hrs post-implantation, 300 μg of the compound of Formula (III) was administered twice a day intraperitoneally for 14 days. Tumor growth was monitored three times per week by digital caliper (Fisherbrand™ Traceable™ Digital Calipers).\nTo assess if the anti-tumor effects of the compound of Formula (III) were generalizable to human diseases, the efficacy in an NSG humanized mouse model of A375 human melanoma was also tested. […] Thus, the compound of Formula (III) can inhibit Sb9 in melanoma tumor cells and render them susceptible to GrB-mediated apoptosis."}, "[1]": {"system": "RENCA mouse kidney tumors", "test": "RENCA kidney tumor model in BALB/c mice", "format": "in vivo", "details": "300 μg i.p. bid for 21 days", "source_text": "FIGS. 6N-6O. […] Data are expressed as means±SEM. *P<0.05, **P<0.01 (Student's t-test). Mean survival time (MST) is increased in mice treated with the compound of Formula (III) as compared to Control group (FIG. 6O).\nFurthermore, similar antitumor effects and increased MST using the compound of Formula (III) in two other in vivo tumor models were observed: Renca renal cell carcinoma and LLC1 lung cancer (FIGS. 6M-6Q). Thus, inhibition of Sb9 by the compound of Formula (III) has potent anti-tumor effects in a broad spectrum of tumors, including melanomas as well as breast, lung, and kidney tumors."}, "[2]": {"test": "In vivo toxicity (CBC, serum chemistry, H&E)", "parameters": "species or system mouse", "details": "300 μg i.p. twice a day for 14 days", "procedure": "To further assess the in vivo toxicity of the compound of Formula (III), 300 μg of the compound of Formula (III) was administered twice a day intraperitoneally for 14 days."}, "Sb9-GrB complex": {"target": "T2, Sb9-GrB complex (Mus musculus, UniProt F7A2V8)", "T2 construct": "endogenous in cells", "T2 sequence (F7A2V8 1-374, one chain of several)": "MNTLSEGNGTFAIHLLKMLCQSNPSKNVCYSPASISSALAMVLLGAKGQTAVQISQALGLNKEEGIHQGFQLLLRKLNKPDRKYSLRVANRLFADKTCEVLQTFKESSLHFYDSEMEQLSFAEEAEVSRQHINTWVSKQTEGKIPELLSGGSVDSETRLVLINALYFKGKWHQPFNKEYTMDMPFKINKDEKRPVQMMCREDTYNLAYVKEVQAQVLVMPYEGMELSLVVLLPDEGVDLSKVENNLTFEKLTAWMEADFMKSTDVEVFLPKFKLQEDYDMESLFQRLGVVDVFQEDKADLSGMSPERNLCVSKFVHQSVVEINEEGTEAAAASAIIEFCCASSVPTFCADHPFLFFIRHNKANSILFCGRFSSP", "test": "Western blot of Sb9-GrB complex in B16 cells", "format": "cell-based", "details": "50 μM, 200 μM, 600 μM, concentration-dependent", "procedure": "FIG. 4G. […] Sb9-GrB complex (com), unbound Sb9 (mono), and complex degradation products or cleaved Sb9 (deg) are indicated by arrows. GAPDH was used as a loading control for protein normalization.\nLysates of cells and tissues were measured using the Bradford assay. Equal amounts of protein were separated by SDS-PAGE and transferred to a PVDF membrane. The membranes were immunoblotted with the following specific antibodies: anti-rabbit IgG-HRP (Sigma-Aldrich), anti-rat IgG-HRP (Sigma-Aldrich), and anti-GAPDH (Sigma-Aldrich), using standard protocols. The blots were developed with West Dura chemiluminescent substrates using a Bio-Rad ChemiDoc imaging system."}, "B16-Sb9 KO tumors": {"system": "B16-Sb9 KO tumors", "test": "B16-Sb9 KO tumors in Sb9 KO mice", "format": "in vivo, mouse", "details": "Sb9 KO mice bearing B16-Sb9 KO tumors", "procedure": "FIG. 5N. Tumor growth curve indicates no difference in antitumor effect of the compound of Formula (III) on B16-Sb9 KO tumors in Sb9 KO mice, as compared to the control group. Data are expressed as means±SEM.\nTo evaluate the off-target effects of the compound of Formula (III) to Sb9 proteins, the B16-Sb9 KO melanoma cells were treated with various concentrations of the compound of Formula (III). […] Furthermore, the antitumor effects of the compound of Formula (III) on the Sb9 KO mice bearing B16-Sb9 KO tumors, as compared to control group were not observed (FIG. 5N)."}}, "data": [{"compound": "O=C(O)c1ccc2ncoc2c1", "note": "[Formula (III), 1,3-benzoxazole-6-carboxylic acid]", "values": [{"measurement": "Kd", "setting": "MBP-Sb9", "result": 273, "unit": "µM"}, {"measurement": "MST vs control", "setting": "A375 human melanoma", "result": "increased MST"}, {"measurement": "reduction of size of human melanoma tumors vs controls", "setting": "A375 human melanoma", "result": 2.1, "unit": "fold"}, {"measurement": "Mean survival time (MST) vs Control", "setting": "[1]", "result": "increased"}, {"measurement": "tumor growth vs control", "setting": "[1]; male BALB/c mice", "result": "significantly slower growth"}, {"measurement": "CBC: WBC, HGB, and PLT vs control", "setting": "[2]", "result": "no significant difference"}, {"measurement": "serum AST, ALT, CRE, and ALB levels vs control", "setting": "[2]", "result": "similar"}, {"measurement": "toxicity to liver, kidney, lung, and heart tissues (H&E staining)", "setting": "[2]", "result": "no toxicity"}, {"measurement": "expression of the Sb9-GrB complex", "setting": "Sb9-GrB complex", "result": "reduced the expression of the Sb9-GrB complex"}, {"measurement": "antitumor effects vs control group", "setting": "B16-Sb9 KO tumors", "result": "not observed"}]}]}
